Test results published in patent publication US8227472B2, “Substituted pyrrolo-pyrazole derivatives as kinase inhibitors” (Nerviano Medical Sciences S.R.L., priority 2006, dated 2012).

Key:
[1] = system: A2780 human ovarian cancer cells; test: In vitro cell proliferation assay, A2780 (CellTiter-Glo); format: cell-based; settings: 72 hours
Method: In Vitro Cell Proliferation Assay
A2780 human ovarian and MCF7 human breast cancer cells (1250 cells/well) were seeded in white 384 well-plates in complete medium (RPMI1640 or EMEM plus 10% Fetal bovine serum) and treated with compounds dissolved in 0.1% DMSO, 24 h after seeding. The cells were incubated at 37° C. and 5% CO2 and after 72 hours the plates were processed using CellTiter-Glo assay (Promega) following the manufacturer's instruction.
CellTiter-Glo is a homogenous method based on the quantification of the ATP present, an indicator of metabolitically active cells. ATP is quantified using a system based on luciferase and D-luciferin resulting into light generation. The luminescent signal is proportional to the number of cells present in culture.
Briefly 25 microL/well reagent solution are added to each wells and after 5 minutes shacking microplates are red by a luminometer. The luminescent signal is proportional to the number of cells present in culture.

PLK-1 = biological target: T1, PLK-1 (Homo sapiens, UniProt P53350); test: Biochemical assay for inhibitors of PLK-1 kinase activity (33P trans-phosphorylation, Dowex); settings: PLK-1 3 nM, 40 microM ATP, 85 microM alpha-casein
T1 construct: His tag (N, cleaved yes); TEV cleavage site (N, cleaved yes); made in house; host or cells: High5 insect cells (baculovirus generated in Sf9)
Description: Cloning, Expression and Purification of Recombinant PLK1 Kinase Domain.
PLK1 kinase domain (corresponding to residues 2-345 of the full length sequence, see Swiss-Prot accession number P53350) was PCR amplified from the full-length human PLK1 gene purchased from imaGenes as clone IRATp970A078D.
For cloning purposes, the oligonucleotides included attB sites in order to obtain an attB-flanked PCR product suitable for cloning using the Gateway® technology (Invitrogen). Furthermore, for purification purposes, forward primer included a TEV® cleavage site (Amersham Biosciences). The resulting PCR product was cloned in the pDONR221 plasmid and then transferred in the baculovirus expression vector pVL1393 (Invitrogen) Gateway®-modified. For expression and purification purposes, a His tag was added N-terminal to the PLK kinase domain. Cloning was performed according to the protocols described in the Gateway® manual.
Baculoviruses were generated by cotransfecting Sf9 insect cells with the expression vector and the viral DNA using the BaculoGold® transfection kit (Pharmingen). Viral supernatant was recovered after 5 days and subjected to 3 rounds of amplification to increase viral titer. Recombinant protein was produced by infecting High5 insect cells. After 48 hours of infection, cells were recovered, pelletted and freezed at −80° C. For purification of recombinant protein, pellet was thawed, resuspended in lysis buffer (PBS, NaCl 150 mM, CHAPS 0.1%, DTT 20 mM, glycerol 10%, protease inhibitors) and lysed by sonication. Lysate was cleared by centrifugation and loaded on a Nichel affinity column. After extensive wash, recombinant protein was cleaved and eluted by incubation with TEV® protease.
Biochemical Assay for Inhibitors of PLK-1 Kinase Activity
The inhibitory activity of putative kinase inhibitors and the potency of selected compounds were determined using a trans-phosphorylation assay.
Specific peptide or protein substrates are trans-phosphorylated by their specific serine-threonine or tyrosine kinase, in the presence of ATP traced with ^33P-γ-ATP, and in the presence of their own optimal buffer and cofactors.
At the end of the phosphorylation reaction, more than 98% cold ATP and radioactive ATP is captured by an excess of the ion exchange dowex resin; the resin then settles down to the bottom of the reaction plate by gravity.
Supernatant, containing the phosphorylated substrate, is subsequently withdrawn and transferred into a counting plate, then evaluated by β-counting.
Kinase buffer was composed of 50 mM HEPES pH 7.9 containing 10 mM MnCl2, 1 mM DTT, 3 microM NaVO3, and 0.2 mg/mL BSA, 10 mM β-glycerophosphate.
The kinase assay was run with a final enzyme concentration PLK-1 of 3 nM, in presence of 40 microM ATP, 3 nM ^33P-γ-ATP and 85 microM substrate alpha-casein, SIGMA, #C-3240.
1) 3× Enzyme mix (done in Kinase Buffer 3×), 5 microL/well
2) 3× substrate and ATP mix (done in ddH2O), together with ^33P-γ-ATP, 5 microL/well
3) 3× test compounds (diluted into ddH2O—3% DMSO)—5 microL/well
For % inhibition studies, individual dilution plates at 1 mM, 100 microM and 10 microM are prepared in 100% DMSO, then diluted at a 3× concentration (30, 3 and 0.3 microM) in ddH2O, 3% DMSO. A Multimek 96 (Beckman) is used for dilutions and compound pipetting into the test plates
For IC50 determination, compounds are received as 1 mM, 100% DMSO solutions, plated into the first column of a microtiter plate (A1 to G1), 100 microL.
A Biomek 2000 (Beckman) is used for serial 1:3 dilutions in water, 3% DMSO, from column A1 to A10 and for all the seven compounds in the plate. In a standard experiment, the highest concentration of all compounds is 30 microM, then diluted in the final test mixture down to 10 microM. […]

T1 sequence (P53350 2-345): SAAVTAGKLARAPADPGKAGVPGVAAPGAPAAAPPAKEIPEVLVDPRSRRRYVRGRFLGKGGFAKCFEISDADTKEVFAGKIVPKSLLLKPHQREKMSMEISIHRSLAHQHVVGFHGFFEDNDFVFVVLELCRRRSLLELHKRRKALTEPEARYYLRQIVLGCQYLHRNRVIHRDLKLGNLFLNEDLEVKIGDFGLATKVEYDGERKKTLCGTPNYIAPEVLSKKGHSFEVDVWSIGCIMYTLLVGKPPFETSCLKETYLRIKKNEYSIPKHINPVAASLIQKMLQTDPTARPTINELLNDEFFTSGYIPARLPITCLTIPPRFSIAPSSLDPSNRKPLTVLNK

| IC50 [1] | IC50 (PLK-1) | Structure (SMILES) |
| --- | --- | --- |
| 119 nM | 30 nM | CC1(C)c2[nH]nc(NC(=O)c3cccc(N)c3)c2CN1C(=O)Nc1c(Cl)cccc1Cl [Compound 250, 3-[(3-aminobenzoyl)amino]-N-(2,6-dichlorophenyl)-6,6-dimethyl-4,6-dihydropyrrolo[3,4-c]pyrazole-5(1H)-carboxamide] |
| 380 nM | 75 nM | CN1CCN(c2ccc(C(=O)Nc3n[nH]c4c3CN(C(=O)Cc3ccccc3C(F)(F)F)C4(C)C)cc2)CC1 [Compound 44, N-(6,6-dimethyl-5-{[2-(trifluoromethyl)phenyl]acetyl}-1,4,5,6-tetrahydropyrrolo[3,4-c]pyrazol-3-yl)-4-(4-methylpiperazin-1-yl)benzamide] |
| 63 nM | 24 nM | CC1(C)c2[nH]nc(NC(=O)c3ccc(N)cc3)c2CN1C(=O)Nc1c(Cl)cccc1Cl [Compound 251, 3-[(4-aminobenzoyl)amino]-N-(2,6-dichlorophenyl)-6,6-dimethyl-4,6-dihydropyrrolo[3,4-c]pyrazole-5(1H)-carboxamide] |
| 209 nM | 230 nM | Cc1ccc(C(=O)Nc2n[nH]c3c2CN(C(=O)Nc2c(Cl)cccc2Cl)C3(C)C)cc1 [Compound 64, N-(2,6-dichlorophenyl)-6,6-dimethyl-3-[(4-methylbenzoyl)amino]-4,6-dihydropyrrolo[3,4-c]pyrazole-5(1H)-carboxamide] |
| 19 nM | 96 nM | CCc1ccccc1NC(=O)N1Cc2c(NC(=O)c3ccc(N4CCN(C)CC4)cc3)n[nH]c2C1(C)C [Compound 178, N-(2-ethylphenyl)-6,6-dimethyl-3-{[4-(4-methylpiperazin-1-yl)benzoyl]amino}-4,6-dihydropyrrolo[3,4-c]pyrazole-5(1H)-carboxamide] |
| 71 nM | 52 nM | CN1CCN(c2ccc(C(=O)Nc3n[nH]c4c3CN(C(=O)Cc3cccs3)C4(C)C)cc2)CC1 [Compound 60, N-[6,6-dimethyl-5-(2-thienylacetyl)-1,4,5,6-tetrahydropyrrolo[3,4-c]pyrazol-3-yl]-4-(4-methylpiperazin-1-yl)benzamide] |
